The target in assay [1] is T1, HCV NS3/4A protease GT1a WT (Hepatitis C virus genotype 1a, UniProt P27958, C1185S).
T1 construct: His tag (cleaved yes); made in house; host or cells: Escherichia coli BL21(DE3), pET28a
It counts as biochemical. The settings on record: for Ki: 2 nM protease preincubated 1 h at room temperature with inhibitor, pH 7.5, 200 nM fluorogenic substrate, Morrison equation global fit, error from global fit of at least three replicates; for Fold increase in potency against WT compared with the parent compound: relative to parent compound, WT protease.

Assay [2] concerns the target T2, HCV NS3/4A protease D168A variant (Hepatitis C virus genotype 1a, UniProt P27958, C1185S/D1194A).
T2 construct: His tag (cleaved yes); made in house; host or cells: Escherichia coli BL21(DE3), pET28a
It is filed as biochemical. To be noted: for Ki: 2 nM protease preincubated 1 h at room temperature with inhibitor, pH 7.5, 200 nM fluorogenic substrate, Morrison equation global fit, error from global fit of at least three replicates.

The test system of assay [3] is HCV NS3/4A protease D168A variant. It is filed as biochemical, Hepatitis C virus genotype 1a.

These results are taken from article PMC7157764, “Avoiding Drug Resistance by Substrate Envelope-Guided Design: Toward Potent and Robust HCV NS3/4A Protease Inhibitors” (mBio, 2020).

One may read the Ki as the dissociation constant of the complex between target and ligand, obtained from inhibition or displacement. Low readings indicate tighter binding, high ones weaker binding.

T2 sequence (P27958 1027-1208 C1185S/D1194A): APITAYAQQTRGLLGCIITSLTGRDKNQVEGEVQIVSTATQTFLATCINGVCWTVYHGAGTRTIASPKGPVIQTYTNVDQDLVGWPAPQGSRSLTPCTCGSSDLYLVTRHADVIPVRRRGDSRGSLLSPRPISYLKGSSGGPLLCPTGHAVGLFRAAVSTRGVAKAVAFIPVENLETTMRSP
T1 sequence (P27958 1027-1208 C1185S): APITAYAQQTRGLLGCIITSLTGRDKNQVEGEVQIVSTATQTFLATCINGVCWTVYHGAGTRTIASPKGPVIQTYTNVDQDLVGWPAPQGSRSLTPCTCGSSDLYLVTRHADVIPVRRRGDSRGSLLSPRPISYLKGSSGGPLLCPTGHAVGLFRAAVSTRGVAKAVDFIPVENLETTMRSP

On to `CCc1nc2ccc(OC)cc2nc1O[C@@H]1C[C@H]2C(=O)N[C@]3(C(=O)NS(=O)(=O)C4CC4)C[C@H]3/C=C\CCCCC[C@H](NC(=O)OC(C)(C)C)C(=O)N2C1` [5172-mcP1P3, reference compound], for which the values for the Ki in assay [1] and in assay [2] were 3.29 ± 0.52 nM and 82.4 ± 4.4 nM, respectively.

Regarding `COc1ccc2nc(C)c(O[C@@H]3C[C@H]4C(=O)N[C@]5(C(=O)NS(=O)(=O)C6(C)CC6)C[C@H]5/C=C\CCCCC[C@H](NC(=O)OC5(C)CC5)C(=O)N4C3)nc2c1` [P4-1], the Ki was 4.44 ± 0.3 nM in assay [1] and 27.9 ± 4.1 nM in assay [2]. In assay [3], the “Fold change of Ki, D168A relative to WT” value worked out at 6 fold. Further, the “Fold increase in potency against D168A compared with the parent compound” value in assay [2] is roughly 2 fold.

As to `COc1ccc2nc(C)c(O[C@@H]3C[C@H]4C(=O)N[C@]5(C(=O)NS(=O)(=O)C6(C)CC6)C[C@H]5/C=C\CCCCC[C@H](NC(=O)OC5(C)CCC5)C(=O)N4C3)nc2c1` [P4-2], in assay [1], the Ki was 1.4 ± 0.13 nM and the “Fold increase in potency against WT compared with the parent compound” value came to 4 fold. For the same compound, the “Fold change of Ki, D168A relative to WT” value in assay [3] came to 33 fold. This compound also displayed a Ki in assay [2] of 46.4 ± 3.4 nM.

As for `CCC1(OC(=O)N[C@H]2CCCCC/C=C\[C@@H]3C[C@@]3(C(=O)NS(=O)(=O)C3(C)CC3)NC(=O)[C@@H]3C[C@@H](Oc4nc5cc(OC)ccc5nc4C)CN3C2=O)CCCC1` [P4-5], the Ki in assay [1] was 1.29 ± 0.05 nM; in assay [2], 21.7 ± 2.3 nM. Further, the “Fold change of Ki, D168A relative to WT” value in assay [3] is 17 fold.

On to `COc1ccc2nc(C)c(O[C@@H]3C[C@H]4C(=O)N[C@]5(C(=O)NS(=O)(=O)C6(C)CC6)C[C@H]5/C=C\CCCCC[C@H](NC(=O)OC5CCCCC5)C(=O)N4C3)nc2c1` [P4-6], for which the Ki in assay [1] was 0.94 ± 0.25 nM; in assay [2], 12.7 ± 1.2 nM. The “Fold change of Ki, D168A relative to WT” value in assay [3] came to 14 fold.

Take `COc1ccc2nc(C)c(O[C@@H]3C[C@H]4C(=O)N[C@]5(C(=O)NS(=O)(=O)C6(C)CC6)C[C@H]5/C=C\CCCCC[C@H](NC(=O)OC5C[C@@H]6C[C@@H]6C5)C(=O)N4C3)nc2c1` (stereo partly shown) [P4-7]: in assay [1], the Ki is 0.54 ± 0.2 nM and the “Fold increase in potency against WT compared with the parent compound” value is on record as “approximately 6.5 fold”. Moreover, in assay [3], the “Fold change of Ki, D168A relative to WT” value amounted to 4 fold. Moreover, in assay [2], the “Fold increase in potency against D168A compared with grazoprevir” value is listed as roughly 20 fold, the “Fold increase in potency against D168A compared with the parent compound” value is recorded as roughly 20 fold and the Ki is 2.3 ± 0.7 nM.

For `COC(=O)N[C@H](C(=O)N[C@H]1CCCCC/C=C\[C@@H]2C[C@@]2(C(=O)NS(=O)(=O)C2(C)CC2)NC(=O)[C@@H]2C[C@@H](Oc3nc4cc(OC)ccc4nc3C)CN2C1=O)C(C)C` [P4P5-1B], the Ki in assay [1] worked out at 13 ± 0.8 nM; in assay [2] it was 102 ± 6.8 nM. Further, the “Fold change of Ki, D168A relative to WT” value in assay [3] is listed as 8 fold.

Take `COC(=O)NC1(C(=O)N[C@H]2CCCCC/C=C\[C@@H]3C[C@@]3(C(=O)NS(=O)(=O)C3(C)CC3)NC(=O)[C@@H]3C[C@@H](Oc4nc5cc(OC)ccc5nc4C)CN3C2=O)CCCC1` [P4P5-5]: the Ki was 31 ± 2.74 nM in assay [1] and 931 ± 70 nM in assay [2]. Besides, the “Fold change of Ki, D168A relative to WT” value in assay [3] is 30 fold.
